Measurements from US4694069A, “Kibdelosporangium aridum SK&F-AAD-609” (SmithKline Beckman Corporation, priority 1985, dated 1987).

Experiments:
[1] = system: mixed intestinal microflora (cecum fluid); assay: Swine in vitro model; details: one level, up to 166.67 ppm; 4-5 h
Method: A swine in vitro model was used to characterize AAD-609 antibiotics as potential feed additives in swine and poultry. Mixed intestinal microflora were obtained from ileally-cannulated pigs. Virginiamycin, carbadox, AAD-216 and its components, and AAD-609 Complex (containing less than 5% AAD-216 antibiotics) were tested at one level. […] Glucose (GLU) was spared from microbial degradation. Volatile fatty acids (TOTAL) were the major end-product of microbial metabolism while lactic acid production were reduced. […] Since AAD-609 and AAD-216 give similar in vitro results, it is expected that AAD-609 has similar growth-promoting activity in monogastric animals. Also, the in vitro activity of AAD-609 is similar to the activity previously observed with bacitracin in this model.
The swine in vitro model was carried out by incubating 1.5 ml of cecum fluid, from a swine fed normal rations, mixed with 1.5 ml of a nutrient broth (3 mg casein hydrolysate, 30 mg maltose, 1.25 mg urea, 0.5 mg lysine, and 30 mg cellobiose) and with up to 166.67 parts per million of a selected growth promotant at 39° C., with oscillation, for about 4-5 hours. Results, percentage of control, are reported in the following table in which all abbreviations are as above except that LLA means L-lactate and ETOH means ethanol.

[2] = system: rumen fermentation (strained rumen fluid); assay: Rumen in vitro model; design: species or system steer; details: for AAN (alpha amino nitrogen) / AMO (ammonia nitrogen) / LYS (lysine): 6 h; for % PR (percent propionate) / ACE (acetate) / BUT (butyrate) / ETOH (ethanol) / IBU (isobutyrate) / IVA (isovalerate) / PRO (propionate) / TOTAL (total volatile fatty acids) / VAL: 24 h
Method: The AAD-609 antibiotics were characterized in a rumen in vitro model to assess their potential as feed additives for ruminants. […] Specifically, strained rumen fluid (10 ml) obtained from a fistulated steer receiving a roughage ration, was mixed with 10 ml of nutrient broth (20 mg casein hydrolysate, 100 mg maltose, 15 mg urea, 400 mg solka floc (cellulose), 100 mg cellobiose and 100 mg starch) and with a selected growth promotant and incubated at 39° C., with oscillation, for 24 hours. […] Measurement of AMO, LYS and AAN was done with a sample taken from the incubation flask after 6 hours.

In the case of COC(=O)N/N=C/c1c[n+]([O-])c2ccccc2[n+]1[O-] [Carbadox, carbadox], the “% PR (percent propionate)” value [1] is reported as 38 % of control, the “ACE (acetate)” value [1] is reported as 47 % of control and the “BUT (butyrate)” value [1] is reported as 46 % of control. The “ETOH (ethanol)” value [1] was 62 % of control, the “GLU (glucose)” value [1] was 138 % of control and the “IBU (isobutyrate)” value [1] was 0 % of control. For the same compound, the “IVA (isovalerate)” value [1] was 0 % of control, the “LLA (L-lactate)” value [1] was 9 % of control and the “LYS (lysine)” value [1] was 79 % of control. The “PRO (propionate)” value [1] was 11 % of control, the “TOTAL (total volatile fatty acids)” value [1] was 30 % of control and the VAL [1] was 0 % of control.

For CC[C@@]1([C@@H]2O[C@@H]([C@H]3O[C@@](O)(CO)[C@H](C)C[C@@H]3C)C[C@@H]2C)CC[C@H]([C@]2(C)CC[C@]3(C[C@H](O)[C@@H](C)[C@@H]([C@@H](C)[C@@H](OC)[C@H](C)C(=O)O)O3)O2)O1 [Monensin, monensin], the “AAN (alpha amino nitrogen)” value ([2]; 0.50 ppm) was 117 % of control, the “AMO (ammonia nitrogen)” value ([2]; 0.50 ppm) was 103 % of control and the “LYS (lysine)” value ([2]; 0.50 ppm) was 78 % of control. The “% PR (percent propionate)” value ([2]; 0.50 ppm) was 131 % of control, the “ACE (acetate)” value ([2]; 0.50 ppm) was 100 % of control and the “BUT (butyrate)” value ([2]; 0.50 ppm) was 92 % of control. The “ETOH (ethanol)” value ([2]; 0.50 ppm) was 0 % of control, the “IBU (isobutyrate)” value ([2]; 0.50 ppm) was 112 % of control and the “IVA (isovalerate)” value ([2]; 0.50 ppm) was 150 % of control. For the same compound, the “PRO (propionate)” value ([2]; 0.50 ppm) was 141 % of control, the “TOTAL (total volatile fatty acids)” value ([2]; 0.50 ppm) was 108 % of control and the VAL ([2]; 0.50 ppm) was 100 % of control. For the same compound, the “AAN (alpha amino nitrogen)” value ([2]; 5.00 ppm) was 185 % of control, the “AMO (ammonia nitrogen)” value ([2]; 5.00 ppm) was 101 % of control and the “LYS (lysine)” value ([2]; 5.00 ppm) was 144 % of control. The “% PR (percent propionate)” value ([2]; 5.00 ppm) was 189 % of control, the “ACE (acetate)” value ([2]; 5.00 ppm) was 101 % of control and the “BUT (butyrate)” value ([2]; 5.00 ppm) was 61 % of control. The “ETOH (ethanol)” value ([2]; 5.00 ppm) was 0 % of control, the “IBU (isobutyrate)” value ([2]; 5.00 ppm) was 84 % of control and the “IVA (isovalerate)” value ([2]; 5.00 ppm) was 103 % of control. The “PRO (propionate)” value ([2]; 5.00 ppm) was 208 % of control, the “TOTAL (total volatile fatty acids)” value ([2]; 5.00 ppm) was 110 % of control and the “AAN (alpha amino nitrogen)” value ([2]; 50.00 ppm) was 248 % of control. The “AMO (ammonia nitrogen)” value ([2]; 50.00 ppm) was 101 % of control, the “LYS (lysine)” value ([2]; 50.00 ppm) was 186 % of control and the “ACE (acetate)” value ([2]; 50.00 ppm) was 96 % of control. The “BUT (butyrate)” value ([2]; 50.00 ppm) was 53 % of control, the “ETOH (ethanol)” value ([2]; 50.00 ppm) was 0 % of control and the “IBU (isobutyrate)” value ([2]; 50.00 ppm) was 123 % of control. The “IVA (isovalerate)” value ([2]; 50.00 ppm) was 132 % of control, the “PRO (propionate)” value ([2]; 50.00 ppm) was 258 % of control and the “TOTAL (total volatile fatty acids)” value ([2]; 50.00 ppm) was 117 % of control. For the same compound, the VAL ([2]; 50.00 ppm) was 81 % of control.

With avoparcin the “AAN (alpha amino nitrogen)” value ([2]; 0.50 ppm) was 99 % of control, the “AMO (ammonia nitrogen)” value ([2]; 0.50 ppm) was 93 % of control and the “LYS (lysine)” value ([2]; 0.50 ppm) was 120 % of control. The “% PR (percent propionate)” value ([2]; 0.50 ppm) was 102 % of control, the “ACE (acetate)” value ([2]; 0.50 ppm) was 100 % of control and the “BUT (butyrate)” value ([2]; 0.50 ppm) was 103 % of control. For the same compound, the “ETOH (ethanol)” value ([2]; 0.50 ppm) was 0 % of control, the “IBU (isobutyrate)” value ([2]; 0.50 ppm) was 91 % of control and the “IVA (isovalerate)” value ([2]; 0.50 ppm) was 97 % of control. For the same compound, the “PRO (propionate)” value ([2]; 0.50 ppm) was 104 % of control, the “TOTAL (total volatile fatty acids)” value ([2]; 0.50 ppm) was 102 % of control and the VAL ([2]; 0.50 ppm) was 103 % of control. The “AAN (alpha amino nitrogen)” value ([2]; 5.00 ppm) was 120 % of control, the “AMO (ammonia nitrogen)” value ([2]; 5.00 ppm) was 97 % of control and the “LYS (lysine)” value ([2]; 5.00 ppm) was 150 % of control. The “% PR (percent propionate)” value ([2]; 5.00 ppm) was 123 % of control, the “ACE (acetate)” value ([2]; 5.00 ppm) was 94 % of control and the “BUT (butyrate)” value ([2]; 5.00 ppm) was 82 % of control. The “ETOH (ethanol)” value ([2]; 5.00 ppm) was 0 % of control, the “IBU (isobutyrate)” value ([2]; 5.00 ppm) was 103 % of control and the “IVA (isovalerate)” value ([2]; 5.00 ppm) was 94 % of control. For the same compound, the “PRO (propionate)” value ([2]; 5.00 ppm) was 116 % of control, the “TOTAL (total volatile fatty acids)” value ([2]; 5.00 ppm) was 94 % of control and the VAL ([2]; 5.00 ppm) was 73 % of control. The “AAN (alpha amino nitrogen)” value ([2]; 50.00 ppm) was 182 % of control, the “AMO (ammonia nitrogen)” value ([2]; 50.00 ppm) was 111 % of control and the “LYS (lysine)” value ([2]; 50.00 ppm) was 114 % of control. The “% PR (percent propionate)” value ([2]; 50.00 ppm) was 129 % of control, the “ACE (acetate)” value ([2]; 50.00 ppm) was 98 % of control and the “BUT (butyrate)” value ([2]; 50.00 ppm) was 90 % of control. The “ETOH (ethanol)” value ([2]; 50.00 ppm) was 0 % of control, the “IBU (isobutyrate)” value ([2]; 50.00 ppm) was 117 % of control and the “IVA (isovalerate)” value ([2]; 50.00 ppm) was 90 % of control. The “PRO (propionate)” value ([2]; 50.00 ppm) was 130 % of control, the “TOTAL (total volatile fatty acids)” value ([2]; 50.00 ppm) was 101 % of control and the VAL ([2]; 50.00 ppm) was 68 % of control.
